Measurements taken from ChEMBL document CHEMBL1121574, “Third Smissman Award address: reminiscences and musings of a classical medicinal chemist” (J Med Chem, 1980).
Active and inactive are the calls of the source. No cut-off for these calls is given here.

Tests used:
[1] = Abstinence suppressant dose of the compound; assay type: functional
Monkey [2] = experiment: Physical dependence capacity at abstinence suppressant dose; Intermediate; assay type: functional, organism-based; details: Cercopithecidae
Monkey [3] = experiment: Physical dependence capacity at abstinence suppressant dose; Low; assay type: functional, organism-based; details: Cercopithecidae
[4] = Abstinence suppressant dose of the compound; range 0.5-12 mg/kg, no suppression; assay type: functional
Monkey [5] = experiment: Physical dependence capacity at abstinence suppressant dose; None; assay type: functional, organism-based; details: Cercopithecidae
[6] = Abstinence suppressant dose of the compound; range 2-12mg/kg, no suppression; assay type: functional
[7] = Abstinence suppressant dose of the compound; range 2-60 mg/kg, no suppression; assay type: functional
[8] = Abstinence suppressant dose of the compound; range 2-60 no suppression; assay type: functional
[9] = Abstinence suppressant dose of the compound; range 1-16 mg/kg, no suppression; assay type: functional
[10] = Abstinence suppressant dose of the compound; range 3-30 mg/kg, no suppression; assay type: functional
Mus musculus [11] = species: Mus musculus; experiment: Analgesic activity in mouse; assay type: functional
Monkey [12] = experiment: Physical dependence capacity at abstinence suppressant dose; High; assay type: functional, organism-based; details: Cercopithecidae
Monkey [13] = experiment: Physical dependence capacity at abstinence suppressant dose; low; assay type: functional, organism-based; details: Cercopithecidae
Monkey [14] = experiment: Physical dependence capacity at abstinence suppressant dose; Very low; assay type: functional, organism-based; details: Cercopithecidae
Mus musculus [15] = species: Mus musculus; experiment: The compound was tested for its analgesic activity in mouse; Inactive; assay type: functional, organism-based
Monkey [16] = experiment: Physical dependence capacity at abstinence suppressant dose; No; assay type: functional, organism-based; details: Cercopithecidae
Monkey [17] = experiment: Physical dependence capacity at abstinence suppressant dose; high; assay type: functional, organism-based; details: Cercopithecidae

In the case of `CC[C@]12CCN(C)C(Cc3ccc(O)cc31)C2C` (some centres undefined), the Dose [1] is reported as 1 mg/kg and the Physical dependence capacity (Monkey [2]) is reported as “Intermediate”.

With `CC1C2Cc3ccc(O)cc3[C@]1(C)CCN2C` (some centres undefined) the Dose [1] was >18 mg/kg and the Physical dependence capacity (Monkey [3]) was “Low”.

With `CCC1C2Cc3ccc(O)cc3[C@]1(CC)CCN2C` (some centres undefined) the Dose [4] was 0.5 mg/kg and the Physical dependence capacity (Monkey [5]) was “inactive”.

With `CC[C@H]1C2Cc3ccc(O)cc3[C@]1(C)CCN2C` the Dose [6] was 2 mg/kg and the Physical dependence capacity (Monkey [5]) was “inactive”.

For `CN1CC[C@]2(C)CC1Cc1ccc(O)cc12` [listing 1 of 2 here], the Dose [7] was 2 mg/kg.

For `CC[C@]12CCN(C)C(Cc3ccc(O)cc31)[C@@H]2C`, the Dose [1] was >40 mg/kg and the Physical dependence capacity (Monkey [3]) was “Low”.

With `C[C@H]1C2Cc3ccc(O)cc3[C@]1(C)CCN2C` [listing 1 of 2 here] the Dose [1] was 24 mg/kg.

`CC[C@H]1C2Cc3ccc(O)cc3[C@]1(CC)CCN2C` [listing 1 of 2 here] gave a Dose [8] of 2 mg/kg.

`CC[C@]12CCN(C)C(Cc3ccc(O)cc31)C2` [listing 1 of 2 here] showed a Dose [9] of 1 mg/kg.

For `CCC[C@]12CCN(C)C(Cc3ccc(O)cc31)C2`, the Dose [10] was 3 mg/kg and the Physical dependence capacity (Monkey [5]) was “inactive”.

With `CC[C@H]1C2Cc3ccc(O)cc3[C@]1(CC)CCN2C` [listing 2 of 2 here] the Physical dependence capacity (Monkey [5]) was “inactive”.

In the case of `CC[C@]12CCN(C)C(Cc3ccc(O)cc31)C2` [listing 2 of 2 here], the Physical dependence capacity (Monkey [3]) is reported as “Low”.

For `CN1CC[C@]2(C)CC1Cc1ccc(O)cc12` [listing 2 of 2 here], the Physical dependence capacity (Monkey [5]) was “inactive”.

For `C[C@H]1C2Cc3ccc(O)cc3[C@]1(C)CCN2C` [listing 2 of 2 here], the Physical dependence capacity (Monkey [3]) was “Low”.

For `CN1CC[C@]2(C)CC1Cc1ccc(O)cc12` (single isomer, unassigned; (+)) [listing 1 of 2 here], the ED50 (Mus musculus [11]) was 22.9 mg/kg.

`CC[C@H]1C2Cc3ccc(O)cc3[C@]1(CC)CCN2C` (single isomer, unassigned; (+)) [listing 1 of 2 here] showed an ED50 (Mus musculus [11]) of 7.5 mg/kg.

With `CC[C@]12CCN(C)C(Cc3ccc(O)cc31)C2` (single isomer, unassigned; (+)) [listing 1 of 2 here] the ED50 (Mus musculus [11]) was 21.8 mg/kg.

`CCC[C@]12CCN(C)C(Cc3ccc(O)cc31)[C@@H]2C` (single isomer, unassigned; (+)) [listing 1 of 2 here] gave an ED50 (Mus musculus [11]) of 12.3 mg/kg.

For `CCC[C@]12CCN(C)C(Cc3ccc(O)cc31)[C@@H]2C` (single isomer, unassigned; (+)) [listing 2 of 2 here], the Physical dependence capacity (Monkey [12]) was “High”.

In the case of `CC[C@H]1C2Cc3ccc(O)cc3[C@]1(CC)CCN2C` (single isomer, unassigned; (+)) [listing 2 of 2 here], the Physical dependence capacity (Monkey [2]) is reported as “Intermediate”.

With `CC[C@]12CCN(C)C(Cc3ccc(O)cc31)C2` (single isomer, unassigned; (+)) [listing 2 of 2 here] the Physical dependence capacity (Monkey [13]) was “Low”.

In the case of `CN1CC[C@]2(C)CC1Cc1ccc(O)cc12` (single isomer, unassigned; (+)) [listing 2 of 2 here], the Physical dependence capacity (Monkey [14]) is reported as “Very low”.

In the case of `C[C@H]1C2Cc3ccc(O)cc3[C@]1(C)CCN2C` (single isomer, unassigned; (+)), the ED50 (Mus musculus [15]) is reported as “inactive” and the Physical dependence capacity (Monkey [16]) is reported as “No dependance”.

`CN1CC[C@]2(C)CC1Cc1ccc(O)cc12` (single isomer, unassigned; (-)) [listing 1 of 2 here] gave an ED50 (Mus musculus [11]) of 1.8 mg/kg.

Compound `C[C@H]1C2Cc3ccc(O)cc3[C@]1(C)CCN2C` (single isomer, unassigned; (-)) [listing 1 of 2 here] has an ED50 (Mus musculus [11]; Mus musculus, read-out: ED50) of 0.6 mg/kg.

For `CC[C@H]1C2Cc3ccc(O)cc3[C@]1(CC)CCN2C` (single isomer, unassigned; (-)) [listing 1 of 2 here], the ED50 (Mus musculus [11]) was 1.2 mg/kg.

Compound `CC[C@]12CCN(C)C(Cc3ccc(O)cc31)C2` (single isomer, unassigned; (-)) [listing 1 of 2 here] has an ED50 (Mus musculus [11]) of 0.6 mg/kg.

With `CCC[C@]12CCN(C)C(Cc3ccc(O)cc31)[C@@H]2C` (single isomer, unassigned; (-)) [listing 1 of 2 here] the ED50 (Mus musculus [11]) was 0.8 mg/kg.

With `CCC[C@]12CCN(C)C(Cc3ccc(O)cc31)[C@@H]2C` (single isomer, unassigned; (-)) [listing 2 of 2 here] the Physical dependence capacity (Monkey [16]) was “No dependance”.

With `CC[C@H]1C2Cc3ccc(O)cc3[C@]1(CC)CCN2C` (single isomer, unassigned; (-)) [listing 2 of 2 here] the Physical dependence capacity (Monkey [16]) was “No dependance”.

In the case of `CC[C@]12CCN(C)C(Cc3ccc(O)cc31)C2` (single isomer, unassigned; (-)) [listing 2 of 2 here], the Physical dependence capacity (Monkey [16]) is reported as “No dependance”.

In the case of `CN1CC[C@]2(C)CC1Cc1ccc(O)cc12` (single isomer, unassigned; (-)) [listing 2 of 2 here], the Physical dependence capacity (Monkey [3]) is reported as “Low”.

With `C[C@H]1C2Cc3ccc(O)cc3[C@]1(C)CCN2C` (single isomer, unassigned; (-)) [listing 2 of 2 here] the Physical dependence capacity (Monkey [16]) was “No dependance”.

For `COc1ccc2c3c1O[C@H]1[C@@H](O)C=C[C@H]4[C@@H](C2)N(C)CC[C@@]341` [CODEINE], the ED50 (Mus musculus [11]; Mus musculus, read-out: ED50) was 7.5 mg/kg and the Physical dependence capacity (Monkey [2]) was “Partially active”.

With `CN1CC[C@]23c4c5ccc(O)c4O[C@H]2[C@@H](O)C=C[C@H]3[C@H]1C5` [MORPHINE] the Physical dependence capacity (Monkey [17]) was “Active” and the ED50 (Mus musculus [11]; Mus musculus, read-out: ED50) was 1.2 mg/kg.
